Source: patent US10294202B2, “Pyrrolidinones as herbicides” (FMC Corporation, priority 2013, dated 2019)

Key:
crabgrass, large = assay: Test A pre-/postemergence herbicide test; assay type: in vivo, Digitaria sanguinalis
In short: (§1)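 Seeds sown in loam soil/sand blend received a preemergence directed soil spray of test chemical in non-phytotoxic solvent with surfactant; postemergence plants (2–10 cm, one- to two-leaf stage) were sprayed with the same formulation. After about 10 days in greenhouse, injury was rated visually versus untreated controls, 0 (no effect) to 100 (complete control).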

morningglory [1] = assay: Test A pre-/postemergence herbicide test; assay type: in vivo, Ipomoea spp.
In short: as §1

wheat (winter wheat) = assay: Test C pre-/postemergence herbicide test; assay type: in vivo, Triticum aestivum
In short: (§2)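 Visual rating, 0 (no effect) to 100 (complete control), versus untreated controls after 13 to 15 days in the greenhouse. Pre: seeds in loam/sand, sprayed at planting. Post: 1- to 4-leaf plants (2 to 18 cm) in peat-based mix. Compounds in non-phytotoxic solvent plus surfactant.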

johnsongrass = assay: Test C pre-/postemergence herbicide test; assay type: in vivo, Sorghum halepense
In short: as §2

morningglory [2] = assay: Test C pre-/postemergence herbicide test; assay type: in vivo, Ipomoea coccinea
In short: as §2

velvetleaf = assay: Test C pre-/postemergence herbicide test; assay type: in vivo, Abutilon theophrasti
In short: as §2

chickweed = assay: Test C postemergence herbicide test; assay type: in vivo, Stellaria media
Text: At the same time, plants selected from these crop and weed species and also barley (winter barley, Hordeum vulgare), […]), chickweed (common chickweed, Stellaria media), deadnettle (henbit deadnettle, Lamium amplexicaule), and canarygrass (littleseed canarygrass, Phalaris minor) were planted in pots containing Redi-Earth® planting medium (Scotts Company, 14111 Scottslawn Road, Marysville, Ohio 43041) comprising spaghnum peat moss, vermiculite, wetting agent and starter nutrients and treated with postemergence applications of test chemicals formulated in the same manner. Plants ranged in height from 2 to 18 cm (1- to 4-leaf stage) for postemergence treatments. Treated plants and controls were maintained in a greenhouse for 13 to 15 days, after which time all species were compared to controls and visually evaluated. Plant response ratings, summarized in Table C, are based on a scale of 0 to 100 where 0 is no effect and 100 is complete control. A dash (-) response means no test result.

waterhemp = assay: Test C pre-/postemergence herbicide test; assay type: in vivo, Amaranthus rudis; conditions: Preemergence; for Plant response rating, Waterhemp: 125 g ai/ha; for Plant response rating (scale of 0 to 100), Waterhemp: 250 g ai/ha
In short: as §2

[3] = Postemergence, 1000 g ai/ha, 0 to 100 scale (0 no effect, 100 complete control)
[4] = Postemergence, 31 g ai/ha, scale 0 (no effect) to 100 (complete control)
[5] = Postemergence, 62 g ai/ha, scale 0 to 100 (0 no effect, 100 complete control)
[6] = Postemergence, 125 g ai/ha, scale 0 to 100 (0 no effect, 100 complete control)
[7] = Postemergence, 250 g ai/ha, scale 0 to 100 (0 no effect, 100 complete control)
[8] = Preemergence, 62 g ai/ha, scale 0 to 100
[9] = Preemergence, 125 g ai/ha, scale 0 to 100 (0 no effect, 100 complete control)
[10] = 31 g ai/ha, scale 0 (no effect) to 100 (complete control)
[11] = 62 g ai/ha, scale 0 to 100 (0 no effect, 100 complete control)
[12] = 125 g ai/ha, scale 0 to 100 (0 no effect, 100 complete control)
[13] = 250 g ai/ha, scale 0 to 100 (0 no effect, 100 complete control)
[14] = Postemergence, 125 g ai/ha, 0 to 100 scale, 0 no effect, 100 complete control
[15] = Postemergence, 500 g ai/ha, 0 to 100 scale (0 no effect, 100 complete control)
[16] = Preemergence, 125 g ai/ha, visual rating on 0 to 100 scale (0 no effect, 100 complete control)
[17] = preemergence, 500 g ai/ha, 0 to 100 scale
[18] = Preemergence, 31 g ai/ha, scale 0 to 100, 0 is no effect and 100 is complete control
[19] = Postemergence, 125 g ai/ha, 0 to 100 scale, 0 is no effect, 100 is complete control
[20] = Preemergence, 125 g ai/ha, 0 to 100 scale where 0 is no effect and 100 is complete control
[21] = preemergence, 500 g ai/ha, 0 to 100 scale, 0 is no effect and 100 is complete control
[22] = Preemergence, 62 g ai/ha, scale 0 to 100 (0 no effect, 100 complete control)
[23] = 31 g ai/ha, scale 0 to 100, 0 is no effect and 100 is complete control
[24] = scale 0 to 100 (0 no effect, 100 complete control)

O=C1NCC(c2cc(F)c(F)c(F)c2)C1C(=O)Nc1ccccc1F (racemic) [Compound 34]
Plant response rating, Crabgrass, Large (crabgrass, large; [3]): 90
Plant response rating, Crabgrass, Large (crabgrass, large; Preemergence, 1000 g ai/ha, visual rating on 0 to 100 scale (0 no effect, 100 complete control), approx. 10 days): 90
Plant response rating, Morningglory (morningglory [1]; [3]): 20
Plant response rating, Wheat (wheat (winter wheat); [4]): 0
Plant response rating, Wheat (wheat (winter wheat); [5]): 0
Plant response rating, Wheat (wheat (winter wheat); [6]): 0
Plant response rating, Wheat (wheat (winter wheat); [7]): 0
Plant response rating, Wheat (wheat (winter wheat); [8]): 0
Plant response rating, Wheat (wheat (winter wheat); [9]): 35
Plant response rating, Johnsongrass (johnsongrass; [4]): 0
Plant response rating, Johnsongrass (johnsongrass; [5]): 0
Plant response rating, Johnsongrass (johnsongrass; [6]): 0
Plant response rating, Johnsongrass (johnsongrass; [7]): 0
Plant response rating, Johnsongrass (johnsongrass; [8]): 10
Plant response rating, Johnsongrass (johnsongrass; [9]): 10
Plant response rating, Morningglory (morningglory [2]; [4]): 0
Plant response rating, Morningglory (morningglory [2]; [5]): 5
Plant response rating, Morningglory (morningglory [2]; [6]): 5
Plant response rating, Morningglory (morningglory [2]; [7]): 10
Plant response rating, Morningglory (morningglory [2]; [8]): 0
Plant response rating, Morningglory (morningglory [2]; [9]): 5
Plant response rating, Velvetleaf (velvetleaf; [4]): 5
Plant response rating, Velvetleaf (velvetleaf; [5]): 5
Plant response rating, Velvetleaf (velvetleaf; [6]): 5
Plant response rating, Velvetleaf (velvetleaf; [7]): 5
Plant response rating, Velvetleaf (velvetleaf; [8]): 0
Plant response rating, Velvetleaf (velvetleaf; [9]): 0
Plant response rating, Chickweed (chickweed; [10]): 0
Plant response rating, Chickweed (chickweed; [11]): 0
Plant response rating, Chickweed (chickweed; [12]): 5
Plant response rating, Chickweed (chickweed; [13]): 5

O=C1NCC(c2ccccc2)C1C(=O)Nc1ccccc1F (racemic) [Compound 81]
Plant response rating, Crabgrass, Large (crabgrass, large; [14]): 50
Plant response rating, Crabgrass, Large (crabgrass, large; [15]): 80
Crabgrass, Large plant response rating (crabgrass, large; [16]): 80
Plant response rating, Crabgrass, Large (crabgrass, large; [17]): 90
Plant response rating, Morningglory (morningglory [1]; [14]): 0
Plant response rating, Morningglory (morningglory [1]; [15]): 0
Morningglory plant response rating (morningglory [1]; [16]): 0
Plant response rating, Morningglory (morningglory [1]; [17]): 20
Plant response rating, Wheat (wheat (winter wheat); [4]): 0
Plant response rating, Wheat (wheat (winter wheat); [5]): 0
Plant response rating, Wheat (wheat (winter wheat); [6]): 0
Plant response rating, Wheat (wheat (winter wheat); [7]): 0
Wheat plant response rating (wheat (winter wheat); [18]): 0
Plant response rating, Wheat (wheat (winter wheat); [8]): 0
Plant response rating, Wheat (wheat (winter wheat); [9]): 0
Plant response rating (scale of 0 to 100), Wheat (wheat (winter wheat); Preemergence, 250 g ai/ha): 0
Plant response rating, Johnsongrass (johnsongrass; [4]): 0
Plant response rating, Johnsongrass (johnsongrass; [5]): 0
Plant response rating, Johnsongrass (johnsongrass; [6]): 0
Plant response rating, Johnsongrass (johnsongrass; [7]): 0
Johnsongrass plant response rating (johnsongrass; [18]): 0
Plant response rating, Johnsongrass (johnsongrass; [8]): 0
Plant response rating, Johnsongrass (johnsongrass; [9]): 0
Plant response rating (scale of 0 to 100), Johnsongrass (johnsongrass; Preemergence, 250 g ai/ha): 0
Plant response rating, Morningglory (morningglory [2]; [4]): 0
Plant response rating, Morningglory (morningglory [2]; [5]): 0
Plant response rating, Morningglory (morningglory [2]; [6]): 0
Plant response rating, Morningglory (morningglory [2]; [7]): 0
Morningglory plant response rating (morningglory [2]; [18]): 0
Plant response rating, Morningglory (morningglory [2]; [8]): 0
Plant response rating, Morningglory (morningglory [2]; [9]): 0
Plant response rating (scale of 0 to 100), Morningglory (morningglory [2]; Preemergence, 250 g ai/ha): 0
Plant response rating, Velvetleaf (velvetleaf; [4]): 0
Plant response rating, Velvetleaf (velvetleaf; [5]): 0
Plant response rating, Velvetleaf (velvetleaf; [6]): 0
Plant response rating, Velvetleaf (velvetleaf; [7]): 0
Velvetleaf plant response rating (velvetleaf; [18]): 0
Plant response rating, Velvetleaf (velvetleaf; [8]): 0
Plant response rating, Velvetleaf (velvetleaf; [9]): 0
Plant response rating (scale of 0 to 100), Velvetleaf (velvetleaf; Preemergence, 250 g ai/ha): 0
Plant response rating, Chickweed (chickweed; [10]): 0
Plant response rating, Chickweed (chickweed; [11]): 0
Plant response rating, Chickweed (chickweed; [12]): 0
Plant response rating, Chickweed (chickweed; [13]): 0

O=C1NCC(c2ccc(C(F)(F)F)nc2)C1C(=O)Nc1cccc(F)c1F (racemic) [Compound 263]
Plant response rating, Crabgrass, Large (crabgrass, large; [19]): 80
Plant response rating, Crabgrass, Large (crabgrass, large; [15]): 90
Plant response rating, Crabgrass, Large (crabgrass, large; [20]): 90
Plant response rating, Crabgrass, Large (crabgrass, large; [21]): 100
Plant response rating, Morningglory (morningglory [1]; [15]): 60
Plant response rating, Morningglory (morningglory [1]; [20]): 0
Plant response rating, Morningglory (morningglory [1]; [21]): 0
Wheat plant response rating (wheat (winter wheat); [18]): 0
Wheat plant response rating (wheat (winter wheat); [22]): 10
Plant response rating (scale of 0 to 100), Wheat (wheat (winter wheat); Preemergence, 250 g ai/ha): 50
Johnsongrass plant response rating (johnsongrass; [18]): 5
Johnsongrass plant response rating (johnsongrass; [22]): 0
Plant response rating, Johnsongrass (johnsongrass; [9]): 0
Plant response rating (scale of 0 to 100), Johnsongrass (johnsongrass; Preemergence, 250 g ai/ha): 0
Morningglory plant response rating (morningglory [2]; [18]): 0
Morningglory plant response rating (morningglory [2]; [22]): 0
Plant response rating, Morningglory (morningglory [2]; [9]): 20
Plant response rating (scale of 0 to 100), Morningglory (morningglory [2]; Preemergence, 250 g ai/ha): 10
Waterhemp plant response rating (waterhemp; [23]): 75
Waterhemp plant response rating (waterhemp; [11]): 80
Plant response rating, Waterhemp (waterhemp; [24]): 90
Plant response rating (scale of 0 to 100), Waterhemp (waterhemp): 100
Velvetleaf plant response rating (velvetleaf; [18]): 5
Velvetleaf plant response rating (velvetleaf; [22]): 5
Plant response rating, Velvetleaf (velvetleaf; [9]): 20
Plant response rating (scale of 0 to 100), Velvetleaf (velvetleaf; Preemergence, 250 g ai/ha): 5

O=C1NCC(c2cccc(C(F)(F)F)c2)C1C(=O)Nc1cccc(F)c1F (stereo not drawn) [Compound 241]
Plant response rating, Crabgrass, Large (crabgrass, large; [19]): 70
Plant response rating, Crabgrass, Large (crabgrass, large; [15]): 80
Plant response rating, Crabgrass, Large (crabgrass, large; [20]): 90
Plant response rating, Crabgrass, Large (crabgrass, large; [21]): 90
Plant response rating, Morningglory (morningglory [1]; [19]): 20
Plant response rating, Morningglory (morningglory [1]; [15]): 30
Plant response rating, Morningglory (morningglory [1]; [20]): 0
Plant response rating, Morningglory (morningglory [1]; [21]): 0
Wheat plant response rating (wheat (winter wheat); [18]): 0
Wheat plant response rating (wheat (winter wheat); [22]): 45
Plant response rating, Wheat (wheat (winter wheat); [9]): 90
Plant response rating (scale of 0 to 100), Wheat (wheat (winter wheat); Preemergence, 250 g ai/ha): 80
Johnsongrass plant response rating (johnsongrass; [18]): 85
Johnsongrass plant response rating (johnsongrass; [22]): 80
Plant response rating, Johnsongrass (johnsongrass; [9]): 85
Plant response rating (scale of 0 to 100), Johnsongrass (johnsongrass; Preemergence, 250 g ai/ha): 90
Morningglory plant response rating (morningglory [2]; [18]): 0
Morningglory plant response rating (morningglory [2]; [22]): 0
Plant response rating, Morningglory (morningglory [2]; [9]): 10
Plant response rating (scale of 0 to 100), Morningglory (morningglory [2]; Preemergence, 250 g ai/ha): 30
Waterhemp plant response rating (waterhemp; [23]): 25
Waterhemp plant response rating (waterhemp; [11]): 40
Plant response rating, Waterhemp (waterhemp; [24]): 45
Plant response rating (scale of 0 to 100), Waterhemp (waterhemp): 60
Velvetleaf plant response rating (velvetleaf; [18]): 0
Velvetleaf plant response rating (velvetleaf; [22]): 0
Plant response rating, Velvetleaf (velvetleaf; [9]): 5
Plant response rating (scale of 0 to 100), Velvetleaf (velvetleaf; Preemergence, 250 g ai/ha): 40
